From PubChem BioAssay AID1959 (Broad Institute, 2009) come the findings set out here.

Active and inactive are the calls of the source.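 How the source made its calls: active means growth-inhibition EC50 no more than tenfold above the top tested dose; inconclusive means flat fit between 30% and 70% inhibition, or unreliable fit; inactive means EC50 more than tenfold above the top tested dose.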 A value given as a limit tells only on which side of the number the result lay.

This assay deals with E. coli NEB5alpha growth, BacTiter-Glo luminescence, 4 h. The experiment in a line: Escherichia coli growth inhibition, dose response, counter-screen for MEX-5/POS-1 RNA-binding inhibitor project, luminescence, NEB5alpha (AID 1959).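 Further: pUC19-transformed ampicillin-resistant cells grown in LB with ampicillin.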
Turning to `CN1C(=O)S/C(=C/c2cccn2-c2cccc(C(=O)O)c2)C1=O`, the EC50 was > 11 µM (inactive).
For the molecule `CCCCc1ccc(/C=C2\C(=O)ON=C2c2ccccc2)s1`, the EC50 is > 11 µM (inactive).
As for `COc1ccc(NC(=O)Nc2cc(C)cc(C)c2)cn1`, the EC50 is > 11 µM (inactive).
In the case of `O=C1C2CC=C(Cl)CC2C(=O)N1CCc1ccccc1` (configuration not stated) it was > 11 µM (inactive); in that of `C/C(CCc1oc2ccc(Cl)cc2c1-c1ccc(C)o1)=N\O`, > 11 µM (inactive); in that of `COc1ccc(C2C(C(=O)c3cccs3)=C(O)C(=O)N2c2nncs2)cc1` (configuration not stated), > 11 µM (inactive).
Under `CCN1C(=O)C(=Cc2ccc(N3CCOCC3)o2)C(=O)N(CC)C1=S` stands > 11 µM (inactive); under `Cc1[nH][nH]c(=O)c1C(c1ccc(-c2ccccc2C(=O)O)o1)c1c(C)[nH][nH]c1=O`, > 11 µM (inactive); under `COc1ccc(S(=O)(=O)Nc2ccc(O)c(Sc3ncn[nH]3)c2)cc1`, > 11 µM (inactive).
Turning to `COc1ccc(C(=O)c2sc3nc(C)cc(-c4cccs4)c3c2N)cc1OC`, the EC50 was > 11 µM (inactive).
Take `COc1ccc2c(-c3ccccc3)cc(SCC(N)=O)nc2c1`: the EC50 was > 11 µM (inactive).
As to `Cc1onc(-c2c(F)cccc2Cl)c1C(=O)N1CCCc2ccccc21`, the EC50 was > 11 µM (inactive).
In the case of `CCCNc1c(F)c(F)c2c(C)c3ccccc3nc2c1F`, the EC50 is > 11 µM (inactive).
On to `O=C(O)c1cccc(-n2cccc2/C=C2\NC(=O)N(Cc3ccc(F)cc3)C2=O)c1`, for which the EC50 was > 11 µM (inactive).
Regarding `Cc1cc(/C=c2\sc3nc4ccccc4n3c2=O)c(C)n1-c1ccc(C(=O)O)cc1`, the EC50 is > 11 µM (inactive).
As for `Cc1ccc2sc(NNC(=O)c3cc(=O)c4ccccc4o3)nc2c1C`, the EC50 was > 11 µM (inactive).
Take `COC(=O)Cn1cc(C=C2C(=O)N(C)C(=O)N(C)C2=O)c2ccccc21`: the EC50 was > 11 µM (inactive).
As to `Oc1cc2c(cc1O)C(c1ccccc1)CNCC2` (configuration not stated), the EC50 is > 11 µM (inactive).
Take `COCCn1c(=N)c(S(=O)(=O)c2ccc(Br)cc2)cc2c(=O)n3ccccc3nc21`: the EC50 was > 11 µM (inactive).
With `Cc1cc(N=Cc2c(O)n(-c3ccc4c(c3)OCO4)c(=O)c3ccccc23)ccn1`, the EC50 was > 11 µM (inactive).
In the case of `CCCNS(=O)(=O)c1ccc(CCC(=O)NCc2ccc3c(c2)OCO3)cc1` it was > 11 µM (inactive); in that of `COc1cccc(N2C(=O)/C(=C/c3ccc(C)o3)C(=O)NC2=S)c1`, > 11 µM (inactive).
Regarding `C=CCN1C(=O)NC(=O)/C(=C/c2c(CCN(C)C(=O)c3ccccc3)cc3c(c2OC)OCO3)C1=O`, the EC50 was > 11 µM (inactive).
In the case of `COc1ccc(/C=C/c2ccc3c(Br)ccc(O)c3n2)cc1` it was > 11 µM (inactive); in that of `Cc1cccn2c(=O)c3cc(S(=O)(=O)c4ccccc4)c(=N)n(Cc4cccnc4)c3nc12`, > 11 µM (inactive); in that of `CC1CCc2nn(CC(=O)NCCN3CCCCC3C)cc2C1` (configuration not stated), > 11 µM (inactive).
Under `O=C1C=C(Nc2cccc3cccnc23)c2ccccc2C1=O` stands > 11 µM (inactive).
Regarding `O=C(O)CCc1ccc(-c2ccccc2)n1-c1ccc(C(=O)O)cc1`, the EC50 was > 11 µM (inactive).
Consider `CC(=O)Nc1ccc(S(=O)(=O)NCc2nc(-c3cccc(C)c3)no2)cc1`, for which the EC50 is > 11 µM (inactive).
For the molecule `O=C(Nc1ccccc1F)c1coc(=O)c(Br)c1`, the EC50 was > 11 µM (inactive).
For `N#CC(C#N)=Cc1cccn1-c1ccc(C(=O)O)cc1`, the EC50 is > 11 µM (inactive).
As for `O=C(N/N=C/c1ccc(-c2cccc([N+](=O)[O-])c2)o1)c1ccc([N+](=O)[O-])cc1`, the EC50 is > 11 µM (inactive).
For the molecule `O=C(N/N=C/c1c(O)n(CCc2ccccc2)c(=O)[nH]c1=O)c1ccncc1`, the EC50 was > 11 µM (inactive).
In the case of `CCCCC1=CC2=CC(=O)C(C)(O)C(=O)C2=CO1` (configuration not stated) it was > 11 µM (inactive).
Turning to `CN1CC=C2C(C#N)=C(N)C(C#N)(C#N)[C@H](c3cccc(Cl)c3)C2C1` (some centres not stated), the EC50 was > 11 µM (inactive).
In the case of `O=c1[nH]c(=S)[nH]c2c1C(c1ccc(Br)cc1)c1c([nH]c(=S)[nH]c1=O)O2` it was > 11 µM (inactive); in that of `Cc1nc2ccccc2c(=O)n1/N=C/c1ccc(O)c(O)c1O`, > 11 µM (inactive).
On to `CCc1c(C)nc(SCC(=O)NNC(=O)c2ccco2)[nH]c1=O`, for which the EC50 is > 11 µM (inactive).
Take `COc1ccc(C2C(C#N)=C(/N=C/N3CCOCC3)OC3=C2C(=O)CC(C)(C)C3)cc1OC` (configuration not stated): the EC50 is > 11 µM (inactive).
Consider `Nc1c(C(=O)c2ccc(Br)s2)oc2ccccc12`, for which the EC50 was > 11 µM (inactive).
Consider `Cc1cccc(C)c1NC(=O)CN1C(=O)S/C(=C\c2cccn2-c2cccc(C(=O)O)c2)C1=O`, for which the EC50 was > 11 µM (inactive).
In the case of `N#C/C(=C\N1CCN(Cc2ccc3c(c2)OCO3)CC1)c1nc2ccccc2s1` it was > 11 µM (inactive); in that of `CC(=Nc1ccc(Br)cc1)c1sc2ccccc2c1O`, > 11 µM (inactive).
In the case of `Oc1c(Br)cc(Br)c(/C=N/n2c(-c3ccccc3)n[nH]c2=S)c1Br` it was > 11 µM (inactive); in that of `N#C/C(=C\c1cc(O)c(O)c(O)c1)C(N)=O`, > 11 µM (inactive); in that of `Nc1ccc2nc(CCCO)[nH]c2c1`, > 11 µM (inactive).
Take `Cn1ncc2c(NNC(=O)c3ccc(O)cc3)ncnc21`: the EC50 was > 11 µM (inactive).
For the molecule `Nc1ccc2nc3c(=O)[nH]c(=S)[nH]c3nc2c1`, the EC50 is > 11 µM (inactive).
In the case of `COc1ccc2nc3ccccc3nc2c1NC(=O)c1ccc(Br)cc1` it was > 11 µM (inactive); in that of `COc1cc(N=Cc2c(O)c3ccccc3oc2=O)c(OC)cc1Cl`, > 11 µM (inactive); in that of `Cc1cc2c3c(c1)C(C)CC(C)(C)N3C(=O)C2=O` (configuration not stated), > 11 µM (inactive).
Take `COc1ccc(OC)c(N2C(=O)/C(=C/c3ccco3)C(=O)NC2=S)c1`: the EC50 is > 11 µM (inactive).
Under `Cc1cc(/C=C2\C(=O)NC(=O)N(C)C2=O)c(C)n1-c1ccc2c(c1)OCO2` stands > 11 µM (inactive); under `O=C1NC(=O)[C@@H]2C3c4ccccc4C=CN3[C@H](C(=O)c3cccs3)[C@H]12` (some centres not stated), > 11 µM (inactive); under `CN1C(=O)NC(=O)/C(=C\c2ccc([N+](=O)[O-])o2)C1=O`, > 11 µM (inactive).
`O=C(O)c1cccc(-n2cccc2/C=N/O)c1`: the EC50 was > 11 µM (inactive).
For `CN1C(=O)c2cccc3c(N)ccc(c23)C1=O`, the EC50 was > 11 µM (inactive).
In the case of `COc1ccc(/C=c2\sc3nc(-c4ccccc4OC)nn3c2=O)c(OC)c1` it was > 11 µM (inactive).
Take `CCn1c(/C=C/c2ccc([N+](=O)[O-])o2)nc2ccccc2c1=O`: the EC50 was > 11 µM (inactive).
Turning to `N#C/C(=C(/O)c1cc2ccccc2o1)c1nc2ccccc2s1`, the EC50 is > 11 µM (inactive).
Turning to `CCNc1nn2ccccc2c1/C=C(\C#N)C(=O)OCC`, the EC50 was > 11 µM (inactive).
In the case of `COc1ccccc1NC(=O)/C(C#N)=C/c1cc([N+](=O)[O-])ccc1N1CCCC1` it was > 11 µM (inactive); in that of `O=C(Nc1ccccc1)NC1(C(=O)NCc2ccc3c(c2)OCO3)CCCCC1`, > 11 µM (inactive).
For the molecule `Cn1c(O)c(/C=C2\C=c3ccccc3=NC2=O)c(=O)n(C)c1=O`, the EC50 is > 11 µM (inactive).
In the case of `O=C(C1=C(O)C(=O)N(c2ncccn2)C1c1cccs1)c1ccco1` (configuration not stated) it was > 11 µM (inactive).
In the case of `CCSC1=N/C(=C\c2ccccc2)C(=O)N1`, the EC50 is > 11 µM (inactive).
Regarding `Cc1ccc(N2C(=O)NC(=O)/C(=C\c3cc(C)n(-c4ccc(C(=O)O)cc4)c3C)C2=O)cc1`, the EC50 is > 11 µM (inactive).
`CC(C)(C)c1nn(-c2ccccc2)c2[nH]c(=O)c(CNCc3ccco3)cc12`: the EC50 was > 11 µM (inactive).
On to `Oc1ccc(O)c(-c2cnns2)c1`, for which the EC50 was > 11 µM (inactive).
In the case of `CC(=O)c1c(O)cc(O)cc1CC(=O)O` it was > 11 µM (inactive); in that of `CC1(O)C(=O)C=C2C=C(C3CC3)OC=C2C1=O` (configuration not stated), > 11 µM (inactive).
For the molecule `O=C(O)C(=O)/C(=C\c1ccc(Cl)cc1)c1ccc2ccccc2n1`, the EC50 is > 11 µM (inactive).
Regarding `Oc1ccc2ccccc2c1C=Nc1ccc(N2CCOCC2)cc1`, the EC50 is > 11 µM (inactive).
Under `Cc1cc(C(=O)O)ccc1-n1c(C)cc(/C=C(/C#N)C(=O)Nc2ccccc2)c1C` stands > 11 µM (inactive); under `COc1ccccc1C(=O)Nc1ccnn1C1CCN(C(C)CSC)CC1` (configuration not stated), > 11 µM (inactive).
In the case of `CN=C1S/C(=C\c2cn(CC(=O)OC)c3ccccc23)C(=O)N1C` it was > 11 µM (inactive); in that of `CC1=C(C#N)C(=O)OC(C)(C)C1`, > 11 µM (inactive); in that of `Cn1cc(/C=C2\C(=O)NC(=O)N(c3ccccc3)C2=O)c2ccccc21`, > 11 µM (inactive).
As to `COc1ccc(NC(=O)NS(=O)(=O)c2ccc(C)cc2)cn1`, the EC50 is > 11 µM (inactive).
In the case of `Cc1ccc(S(=O)(=O)N2CCOCC2)cc1NC(=O)CN(C)C1CCS(=O)(=O)C1` (configuration not stated), the EC50 was > 11 µM (inactive).
On to `CCOc1cc(N2CCOCC2)c(OCC)cc1NC(C)C(=O)N1CCN(CC)CC1` (configuration not stated), for which the EC50 is > 11 µM (inactive).
`CCN(CC)c1ccc2cc(C#N)c(=O)oc2c1`: the EC50 is > 11 µM (inactive).
With `Cc1ccc(N=Cc2cc(Br)cc(Cl)c2O)cc1`, the EC50 was > 11 µM (inactive).
In the case of `Cc1cccc(NC(=O)/C(C#N)=C\c2cc(C)n(-c3ccc(C(=O)O)cc3)c2C)c1` it was > 11 µM (inactive); in that of `CC(=O)N(C1=C(Cl)C(=O)c2ccccc2C1=O)C1CCCCC1`, > 11 µM (inactive); in that of `CCOC(=O)C1=C2NC(=O)c3ccccc3N2C(=O)C1`, > 11 µM (inactive).
In the case of `COc1ccc(N2C(=O)/C(=C/c3ccco3)C(=O)NC2=S)cc1` it was > 11 µM (inactive).

A word on the EC50: it is the midpoint of the concentration-response curve.
